From BindingDB's records for patent US20250115578 (Chengdu Kanghong Pharmaceutical, 2025)
pIC50: −log10 of the molar value.

These compounds were tested against Sodium channel protein type 10 subunit alpha (Homo sapiens, UniProt Q9Y5Y9) (assay: Electrophysiological Assay).
Method: A capillary glass pipette (BF150-86-10, Sutter Instruments) was pulled into a recording electrode with a micropipette puller (P97, Sutter Instruments). The micromanipulator (MP285, Sutter Instruments) was manipulated under an inverted microscope (IX71, Olympus) to make the recording electrode contact the cell and negative pressure suction was applied to achieve a GQ seal. Then, rapid capacitance compensation was performed, and negative pressure was continued, cell membrane was broken by suction, and whole cell recording mode was formed. Then the slow capacitance was compensated and the membrane capacitance and series resistance were recorded without leakage compensation. When the whole cell recording current was stabilized, dosing was initiated, and the next concentration was detected after acting 5 minutes of each drug concentration. Multiple cells were independently repeated during the recording period. All electrophysiological assays were performed at room temperature. Specifically, 6 concentrations (measuring IC50) or 2 concentrations (preliminary screening) were set for each compound, and the percentage of inhibition of sodium channels was determined by calculating the relative percentage of peak current generated before and after each concentration compound treated cells, and the IC50 value or percentage of inhibition at a specific concentration was calculated using IGOR pro software.

Sodium channel protein type 10 subunit alpha, sequence (Q9Y5Y9 whole entry): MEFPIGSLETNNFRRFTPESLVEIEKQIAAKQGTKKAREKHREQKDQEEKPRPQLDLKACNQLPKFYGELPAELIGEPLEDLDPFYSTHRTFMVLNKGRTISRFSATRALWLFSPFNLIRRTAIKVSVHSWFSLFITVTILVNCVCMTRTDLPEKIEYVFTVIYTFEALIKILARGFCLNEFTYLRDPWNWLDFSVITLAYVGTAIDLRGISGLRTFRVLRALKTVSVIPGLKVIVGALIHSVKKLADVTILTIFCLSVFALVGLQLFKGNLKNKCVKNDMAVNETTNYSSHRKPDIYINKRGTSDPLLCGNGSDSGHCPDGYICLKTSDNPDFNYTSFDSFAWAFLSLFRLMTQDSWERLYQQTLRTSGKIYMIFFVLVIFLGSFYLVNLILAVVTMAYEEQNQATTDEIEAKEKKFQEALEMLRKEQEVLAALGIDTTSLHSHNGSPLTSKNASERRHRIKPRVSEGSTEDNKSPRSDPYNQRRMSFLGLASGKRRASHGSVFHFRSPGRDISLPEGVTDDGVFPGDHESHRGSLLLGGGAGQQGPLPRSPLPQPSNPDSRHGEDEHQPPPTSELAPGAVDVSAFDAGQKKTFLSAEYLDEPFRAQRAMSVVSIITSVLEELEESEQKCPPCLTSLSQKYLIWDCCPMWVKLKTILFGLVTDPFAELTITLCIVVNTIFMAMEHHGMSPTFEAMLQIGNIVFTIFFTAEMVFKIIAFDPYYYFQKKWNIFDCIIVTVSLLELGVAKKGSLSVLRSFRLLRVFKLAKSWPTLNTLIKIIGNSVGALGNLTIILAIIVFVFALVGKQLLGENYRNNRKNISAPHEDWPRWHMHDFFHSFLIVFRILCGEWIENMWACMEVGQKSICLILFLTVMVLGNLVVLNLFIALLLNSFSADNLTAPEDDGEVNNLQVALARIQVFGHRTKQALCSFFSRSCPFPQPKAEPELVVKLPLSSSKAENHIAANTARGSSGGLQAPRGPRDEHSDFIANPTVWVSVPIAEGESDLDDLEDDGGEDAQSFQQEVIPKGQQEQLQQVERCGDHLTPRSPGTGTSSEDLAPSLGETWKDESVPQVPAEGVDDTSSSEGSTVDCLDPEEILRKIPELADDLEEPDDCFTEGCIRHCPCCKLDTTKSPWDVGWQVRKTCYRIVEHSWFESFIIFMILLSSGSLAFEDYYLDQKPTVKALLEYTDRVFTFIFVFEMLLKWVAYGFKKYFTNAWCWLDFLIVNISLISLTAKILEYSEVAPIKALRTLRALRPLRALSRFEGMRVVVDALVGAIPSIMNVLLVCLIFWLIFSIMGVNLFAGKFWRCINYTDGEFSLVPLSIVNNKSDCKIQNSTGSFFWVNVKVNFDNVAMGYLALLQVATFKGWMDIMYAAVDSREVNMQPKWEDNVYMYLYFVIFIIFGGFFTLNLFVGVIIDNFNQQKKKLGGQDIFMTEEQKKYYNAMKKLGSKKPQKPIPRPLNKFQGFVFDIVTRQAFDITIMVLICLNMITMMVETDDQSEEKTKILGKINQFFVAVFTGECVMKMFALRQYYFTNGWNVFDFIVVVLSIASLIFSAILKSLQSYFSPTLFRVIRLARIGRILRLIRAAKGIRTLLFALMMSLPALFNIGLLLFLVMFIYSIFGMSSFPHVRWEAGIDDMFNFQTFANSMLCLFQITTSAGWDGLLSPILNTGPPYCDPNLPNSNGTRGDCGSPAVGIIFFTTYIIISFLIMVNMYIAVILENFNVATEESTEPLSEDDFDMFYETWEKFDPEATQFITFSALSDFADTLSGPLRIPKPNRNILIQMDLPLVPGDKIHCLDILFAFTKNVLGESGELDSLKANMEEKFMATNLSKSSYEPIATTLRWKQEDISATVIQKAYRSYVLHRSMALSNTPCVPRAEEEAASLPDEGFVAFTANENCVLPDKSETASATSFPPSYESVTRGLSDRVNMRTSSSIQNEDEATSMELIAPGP

Structure (SMILES)	pIC50
O=C(Nc1ccc[n+]([O-])c1)c1nc2ccccc2nc1N1CCCC(F)(F)CC1 [US20250115578, KH01]	< 7.00
O=C(Nc1cc[nH]c(=O)c1)c1nc2ccccc2nc1N1CCCC(F)(F)CC1 [US20250115578, KH03]	< 8.00
O=C(Nc1cn[nH]c(=O)c1)c1nc2ccccc2nc1N1CCCC(F)(F)CC1 [US20250115578, KH04]	7.18
